Source: patent US20070249670A1, “Glycogen Phosphorylase Inhibitor Compounds and Pharmaceutical Compositions Thereof” (SMITHKLINE BEECHAM CORPORATION, priority 2004, published 2007)

Biological target: T1, human liver glycogen phosphorylase a (HLGPa) (Homo sapiens, UniProt P06737)
T1 construct: creating a full-length cDNA fused at the 5′ end to codons for methionine-glycine-alanine-histidine; 6xHis tag (leader Met-Gly-Ala-His6-Gly-Gly) (N); made in house; host or cells: E. coli (bacterial expression plasmid pTXK1007LTev)
T1 sequence (P06737 2-847 limits assumed): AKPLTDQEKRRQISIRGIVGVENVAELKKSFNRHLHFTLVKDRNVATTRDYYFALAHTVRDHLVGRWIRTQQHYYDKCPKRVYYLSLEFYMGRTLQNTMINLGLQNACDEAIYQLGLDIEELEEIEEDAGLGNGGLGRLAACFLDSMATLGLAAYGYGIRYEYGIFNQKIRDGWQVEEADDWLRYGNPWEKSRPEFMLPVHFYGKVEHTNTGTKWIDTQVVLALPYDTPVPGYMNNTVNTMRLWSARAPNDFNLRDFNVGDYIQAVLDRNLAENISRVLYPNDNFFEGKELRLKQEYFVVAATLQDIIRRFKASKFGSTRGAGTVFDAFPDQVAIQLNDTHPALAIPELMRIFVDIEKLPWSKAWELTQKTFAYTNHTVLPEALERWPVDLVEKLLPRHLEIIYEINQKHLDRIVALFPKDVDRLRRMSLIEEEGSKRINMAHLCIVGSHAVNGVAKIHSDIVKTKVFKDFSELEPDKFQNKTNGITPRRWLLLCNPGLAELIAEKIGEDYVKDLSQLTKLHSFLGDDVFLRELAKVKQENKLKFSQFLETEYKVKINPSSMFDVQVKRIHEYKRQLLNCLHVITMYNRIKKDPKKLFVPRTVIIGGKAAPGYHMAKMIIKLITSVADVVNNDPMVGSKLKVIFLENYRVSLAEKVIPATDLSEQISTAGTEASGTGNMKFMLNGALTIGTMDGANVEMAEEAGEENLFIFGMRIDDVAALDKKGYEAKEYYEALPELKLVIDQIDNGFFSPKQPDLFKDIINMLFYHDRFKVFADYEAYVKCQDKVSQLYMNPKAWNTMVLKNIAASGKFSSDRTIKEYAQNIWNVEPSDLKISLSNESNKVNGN
Assay: Human liver glycogen phosphorylase a enzymatic activity assay (coupled, fluorescent resorufin readout, with and without 10 mM glucose)
Assay type: biochemical

[1] = human liver glycogen phosphorylase a, table does not say whether with or without 10 mM glucose
[2] = human liver glycogen phosphorylase a enzymatic activity assay

| Compound | IC50 [1] | IC50 [2] |
| --- | --- | --- |
| Cc1cccc(C)c1NC(=O)Nc1cc2ccccc2cc1C(=O)N(CC(=O)O)Cc1ccccn1 [Example 241, N-{[3-({[(2,6-dimethylphenyl)amino]carbonyl}amino)-2-naphthalenyl]carbonyl}-N-(2-pyridinylmethyl)glycine] | 3610 nM |  |
| CCCC(CCC)(NC(=O)c1cc2ccccc2cc1NC(=O)Nc1c(Cl)cccc1Cl)C(=O)O [Example 316, N-{[3-({[(2,6-dichlorophenyl)amino]carbonyl}amino)-2-naphthalenyl]carbonyl}-2-propylnorvaline] | 360 nM |  |
| NC(=O)CC[C@H](NC(=O)c1cc2ccccc2cc1NC(=O)Nc1ccccc1Cl)C(=O)O [Example 32, N-[3-({[(2-chlorophenyl)amino]carbonyl}amino)-2-naphthoyl]-L-glutamine] |  | 41000 nM |
| Cc1cccc(C)c1NC(=O)Nc1cc(Cl)ccc1C(=O)O [Example 166] |  | 8640 nM |
| O=C(Nc1cc2ccccc2cc1C(=O)NC1(C(=O)O)CCN(Cc2ccccc2)CC1)Nc1c(Cl)cccc1Cl [Example 286, 4-({[3-({[(2,6-Dichlorophenyl)amino]carbonyl}amino)-2-naphthalenyl]carbonyl}amino)-1-(phenylmethyl)-4-piperidinecarboxylic acid] | 1380 nM |  |
| Cc1cccc(C)c1NC(=O)Nc1sc2c(c1C(=O)N[C@H](C(=O)O)C(C)C)CCCC2 [Example 3, N-{[2-({[(2,6-dimethylphenyl)amino]carbonyl}amino)-4,5,6,7-tetrahydro-1-benzothien-3-yl]carbonyl}-L-valine] |  | 32200 nM |
| O=C(Nc1cc2ccccc2cc1C(=O)Nc1cscc1C(=O)O)Nc1c(Cl)cccc1Cl [Example 497, 4-({[3-({[(2,6-dichlorophenyl)amino]carbonyl}amino)-2-naphthalenyl]carbonyl}amino)-3-thiophenecarboxylic acid] |  | 17700 nM |
| Cc1cccc(Cl)c1NC(=O)Nc1cc2ccccc2cc1C(=O)N[C@@H](CCC(=O)O)C(=O)O [Example 86, N-[3-({[(2-chloro-6-methylphenyl)amino]carbonyl}amino)-2-naphthoyl]-L-glutamic acid] |  | 700 nM |
| CC[C@H](C)[C@H](NC(=O)c1cc(OC)c(OC)cc1NC(=O)Nc1c(C)cccc1Cl)C(=O)O [Example 71, N-[2-({[(2-chloro-6-methylphenyl)amino]carbonyl}amino)-4,5-dimethoxybenzoyl]-L-isoleucine] |  | 22300 nM |
| Cc1cccc(Cl)c1NC(=O)Nc1cc2ccccc2cc1C(=O)N[C@@H](CCCNC(=N)N)C(=O)O [Example 63, N-[3-({[(2-chloro-6-methylphenyl)amino]carbonyl}amino)-2-naphthoyl]-L-arginine] |  | 2730 nM |
| Cc1cccc(Cl)c1NC(=O)Nc1cc2ccccc2cc1C(=O)N[C@@H](Cc1cccs1)C(=O)O [Example 102, N-{[3-({[(2-chloro-6-methylphenyl)amino]carbonyl}amino)-2-naphthalenyl]carbonyl}-3-(2-thienyl)-L-alanine] |  | 360 nM |
| Cc1cccc(Cl)c1NC(=O)Nc1cc(Cl)ccc1C(=O)N[C@@H](CC(=O)O)C(=O)O [Example 88, N-[4-chloro-2-({[(2-chloro-6-methylphenyl)amino]carbonyl}amino)benzoyl]-L-aspartic acid] |  | 5200 nM |
| COc1ccc(-c2cc(NC(=O)Nc3c(Cl)cc(OC(F)(F)F)cc3Cl)c(C(=O)O)s2)cc1 [Example 432, 3-{[({2,6-dichloro-4-[(trifluoromethyl)oxy]phenyl}amino)carbonyl]amino}-5-[4-(methyloxy)phenyl]-2-thiophenecarboxylic acid] |  | 2700 nM |
| O=C(Nc1ccccc1Cl)Nc1cc2ccccc2cc1C(=O)NC(C(=O)O)c1ccccc1 (centres unmarked) [Example 100, {[3-({[(2-chlorophenyl)amino]carbonyl}amino)-2-naphthoyl]amino}(phenyl)acetic acid] |  | 7630 nM |
| Cc1cccc(C)c1NC(=O)Nc1sc2c(c1C(=O)N[C@@H](CC(=O)O)C(=O)O)CCCC2 [Example 132, N-{[2-({[(2,6-dimethylphenyl)amino]carbonyl}amino)-4,5,6,7-tetrahydro-1-benzothien-3-yl]carbonyl}-L-aspartic acid] |  | 5250 nM |
| Cc1cccc(C)c1NC(=O)Nc1cc2ccccc2cc1C(=O)N(C)CC(=O)O [Example 491, N-{[3-({[(2,6-dimethylphenyl)amino]carbonyl}amino)-2-naphthalenyl]carbonyl}-N-methylglycine] |  | 2110 nM |

Next, values leading:

| IC50 [1] | IC50 [2] | Compound |
| --- | --- | --- |
| 23 nM |  | O=C(Nc1cc(-c2ccccc2)ccc1C(=O)N[C@H](C(=O)O)C1CCCCC1)Nc1c(Cl)cc(OC(F)(F)F)cc1Cl [Example 214, (2S)-Cyclohexyl{[(3-{[({2,6-dichloro-4-[(trifluoromethyl)oxy]phenyl}amino)carbonyl]amino}-4-biphenylyl)carbonyl]amino}ethanoic acid] |
|  | 1670 nM | CSCC[C@H](NC(=O)c1cc2ccccc2cc1NC(=O)Nc1c(C)cccc1C)C(=O)O [Example 49, N-[3-({[(2,6-dimethylphenyl)amino]carbonyl}amino)-2-naphthoyl]-L-methionine] |
| 430 nM |  | Cc1cc(C)c(NC(=O)Nc2cc3ccccc3cc2C(=O)NC2(C(=O)O)CCN(C(=O)OC(C)(C)C)CC2)c(C)c1 [Example 287, 1-{[(1,1-Dimethylethyl)oxy]carbonyl}-4-({[3-({[(2,4,6-trimethylphenyl)amino]carbonyl}amino)-2-naphthalenyl]carbonyl}amino)-4-piperidinecarboxylic acid] |
|  | 30 nM | C=CCc1cc(C)c(NC(=O)Nc2cc(F)ccc2C(=O)N[C@H](C(=O)O)C2CCCCC2)c(C)c1 [Example 476, (2S)-cyclohexyl[({2-[({[2,6-dimethyl-4-(2-propen-1-yl)phenyl]amino}carbonyl)amino]-4-fluorophenyl}carbonyl)amino]ethanoic acid] |
| 300 nM |  | Cc1cc(C)c(NC(=O)Nc2cc(F)ccc2C(=O)NC2(C(=O)O)CCCCCC2)c(C)c1 [Example 221, 1-({[4-Fluoro-2-({[(2,4,6-trimethylphenyl)amino]carbonyl}amino)phenyl]carbonyl}amino)cycloheptane-carboxylic acid] |
| 290 nM |  | Cc1cc(C)c(NC(=O)Nc2cc(F)ccc2C(=O)N[C@H](C(=O)O)C2CCCC2)c(C)c1 [Example 211, (2S)-Cyclopentyl({[4-fluoro-2-({[(2,4,6-trimethylphenyl)amino]carbonyl}amino)phenyl]carbonyl}amino)ethanoic acid] |
| 23 nM |  | Cc1cc(C)c(NC(=O)Nc2cc(-c3cccc(F)c3)ccc2C(=O)N[C@H](C(=O)O)[C@@H](C)OC(C)(C)C)c(C)c1 [Example 233, O-(1,1-Dimethylethyl)-N-{[3′-fluoro-3-({[(2,4,6-trimethylphenyl)amino]carbonyl}amino)-4-biphenylyl]carbonyl}-L-threonine] |
|  | 32 nM | COc1ccc(-c2ccc(C(=O)N[C@H](C(=O)O)C3CCCCC3)c(NC(=O)Nc3c(C)cccc3C)c2)cc1 [Example 191, (2S)-Cyclohexyl({[3-({[(2,6-dimethylphenyl)amino]carbonyl}amino)-4′-(methyloxy)-4-biphenylyl]carbonyl}amino)ethanoic acid] |
| 11 nM |  | Cc1cc(C)c(NC(=O)Nc2cc3ccccc3nc2C(=O)NC2(C(=O)O)CCCCCC2)c(C)c1 [Example 306, 1-({[3-({[(2,4,6-trimethylphenyl)amino]carbonyl}amino)-2-quinolinyl]carbonyl}amino)cycloheptanecarboxylic acid] |
|  | 0.4 nM | CCCc1cc(C)c(NC(=O)Nc2cc(-c3ccc(F)c(F)c3)ccc2C(=O)N[C@H](C(=O)O)[C@@H](C)OC(C)(C)C)c(C)c1 [Example 481, O-(1,1-dimethylethyl)-N-{[3-({[(2,6-dimethyl-4-propylphenyl)amino]carbonyl}amino)-3′,4′-difluoro-4-biphenylyl]carbonyl}-L-threonine] |
| 58 nM |  | Cc1cc(C)c(NC(=O)Nc2cc(F)c(F)cc2C(=O)N[C@H](C(=O)O)C2CCCCC2)c(C)c1 [Example 230, (2S)-Cyclohexyl({[4,5-difluoro-2-({[(2,4,6-trimethylphenyl)amino]carbonyl}amino)phenyl]carbonyl}amino)ethanoic acid] |
| 810 nM |  | Cc1cc(C)c(NC(=O)Nc2cc3ccccc3cc2C(=O)N2CCN(C(=O)OC(C)(C)C)C[C@H]2C(=O)O)c(C)c1 [Example 254, (2S)-4-{[(1,1-dimethylethyl)oxy]carbonyl}-1-{[3-({[(2,4,6-trimethylphenyl)amino]carbonyl}amino)-2-naphthalenyl]carbonyl}-2-piperazinecarboxylic acid] |
| 2470 nM |  | Cc1cc(C)c(NC(=O)Nc2cc3ccccc3cc2C(=O)N2CCC[C@@H]2C(=O)O)c(C)c1 [Example 357, 1-{[3-({[(2,4,6-trimethylphenyl)amino]carbonyl}amino)-2-naphthalenyl]carbonyl}-D-proline] |
